The subject of assay [1] is CD8+ lymphocytes of peptide-immunized HLA-Tg B6 mice. Briefly: CD8+ T cell proliferation (CFSE, cell dividing index) in peptide-immunized mice. The format is in vivo, mouse. The note with it: mice immunized s.c. twice with 50 μg peptide in IFA; 8 days of restimulation by the same peptide. As for the experimental part:
(§1) HLA-A2.1 transgenic C57BL/6 mice were anesthetized with isoflurane and primed with 1×10^7 pfu/50 μL of rAd-F0, rAd-LacZ or 1×10^4 live RSV B1 via the intranasal (i.n.) route. Twenty days later, animals were boosted i.n. with the same dose of respective immunogens. For peptide-based vaccination, transgenic mice were immunized subcutaneously (s.c.) with 50 μg of individual synthetic peptides emulsified in 100 μL of incomplete Freund's adjuvant (IFA) and then boosted s.c. with the same dose of respective peptides mixed with IFA one week later. Mice were sacrificed 7 days after the boost. The splenocytes were isolated and stimulated with synthetic CD8 epitope peptides in the presence of 5-(6)-carboxyfluorescein diacetate succinimidyl ester (CFSE) for 4 and 8 days. Proliferated CD4^+ or CD8^+ T cell counts were analyzed by flow cytometry (BD FACSCalibur) using PE-labeled specific antibody against CD4 or CD8, respectively. […]
(§2) To test the immunogenicity of these peptides, HLA-Tg B6 mice were immunized twice with individual IFA-emulsified peptide No. 3, 14, 23, or peptide 17 at day 0 and day 7. […] Proliferated CD4^+ and CD8^+ lymphocytes in response to CD8 epitope were counted by a flow cytometry analysis using specific anti-CD4 and CD8 antibodies conjugated with FITC, respectively. […]

The subject of assay [2] is CD4+ lymphocytes of peptide-immunized HLA-Tg B6 mice. The experiment in a line: CD4+ T cell proliferation (CFSE, cell dividing index) in peptide-immunized mice. Type of assay: in vivo, mouse. The settings on record: mice immunized s.c. twice with 50 μg peptide in IFA; 8 days of restimulation by the same peptide. As for the experimental part:
as §1, §2

In another assay the target is T1, HLA-A*0201 molecules (Homo sapiens, UniProt P04439, D140Y/D185E/D98H/E176V/E277Q/G131W/G231S/I119V/I121R/I166T/I218V/L300P/L318F/N151K/N90K/P208A/P217A/Q86G/Q94H/R138H/R169H/T345S).
T1 construct: T2 cell (which expressing HLA-A*0201)-stabilization assay; endogenous in cells; host or cells: T2 cells
Briefly: T2 cell-stabilization assay (T2-based HLA-A*0201 binding). The note with it: T2 cells, peptide 50 μg/mL.

The subject of the next assay is RSV-B1. The experiment in a line: Viral load in lungs after live RSV-B1 challenge of peptide-immunized mice. The note with it: two doses of peptide; challenge 10^6 pfu live RSV-B1; 4 days post challenge. Type of assay: in vivo, mouse. As for the experimental part: as §1, with “The splenocytes were isolated and stimulated with synthetic CD8 epitope peptides in the presence of 5-(6)-carboxyfluorescein diacetate succinimidyl ester (CFSE) for 4 and 8 days.” left out
In FIG. 5, mice were immunized via the intranasal route twice with the immunogen as indicated before they were intranasally challenged with 10^6 pfu of live RSV B1. Viral plaques in the lungs of the individual mice were determined 4 days post the challenge using plaque-forming assay as described in the methods. Results were expressed as the plaque number for each mouse. […] 14 and subsequently challenged with 1×10^6 pfu of live RSV-B1 viruses, as compared to 282±116 plaques detected in the lung tissues of mice immunized with the adjuvant IFA alone. […]

For assay [3], the system named is spleen lymphocytes of peptide-immunized HLA-Tg B6 mice. The experiment in a line: IFN-γ ELISPOT, peptide-restimulated splenocytes of peptide-immunized mice. Type of assay: in vivo, mouse. On the procedure: as §1
Following 2 hr of incubation at room temperature, the plate was washed with 200 μL of wash buffer. […] The plates were washed with water, air-dried overnight, and the spots per culture were scored using the immunospot counting reader (C.T.L. IMMUNOSPOT, […] TECHNOLOGY LTD). Results were expressed as the number of cytokine-secreting cells per 5×10^5 splenocytes seeded at culture initiation. […]

On to “KVLDLKNYI (F214-222) [compound 13, 9-mer synthetic peptide from the F protein of RSV-B1 strain]”, for which the “CD8+ lymphocyte proliferation” value in assay [1] is on record as “did not elicit CD8^+ lymphocyte proliferation”. Moreover, the “CD4+ cell proliferation” value in assay [2] is on record as “did not manifest cell proliferation”. Further, in the assay with HLA-A*0201 molecules, the “binding activity to HLA-A*0201 molecules (in words)” value is listed as “strong binding activity”. In the assay with HLA-A*0201 molecules (moderate binding affinity), the “binding affinity higher than the baseline” value came out at 10%. In addition, the “protection against live RSV challenge (lung viral plaques, in words)” value with RSV-B1 was “not protected”. Besides, in assay [3], the “IFN-γ level (ELISPOT, in words)” value is on record as “background level of IFN-γ”.

The values are drawn from patent US20100172925A1, “HLA-A2-RESTRICTED T-CELL EPITOPES OF THE RESPIRATORY SYNCYTIAL VIRUS FUSION PROTEIN AS PEPTIDE-BASED VACCINES” (priority 2009, published 2010).
